Data on 27 molecules can be found in US20030158245A1, “Fused heterocyclic derivatives, their production and use” (priority 2000, published 2003).

For orientation: melting point means the temperature of the solid-liquid transition.

The first data set has as its system Chondromodulin-I (ChM-I) mRNA. Description: Assay of Chondromodulin-I (ChM-I) mRNA by RT-PCR in ATDC5 cells. The format is cell-based, mouse. As to conditions: 10^−6 M test compound; ATDC5 cells cultured 7 days; density of ChM-I band determined by bioimaging; no test compound added = 0. The method, then:
Assay of Chondromodulin-I (ChM-I) mRNA:
ATDC5, a substrain derived from mouse teratocarcinoma cell line AT805, was used. ATDC5 cells were cultured at 37° C. for 7 days in the presence of the test compound using a 1:1 mixed medium of Dulbecco's modified Eagle's medium/Ham's F-12 medium containing 5% heat-inactivated fetal bovine serum and 20 μg/ml gentamycin under a condition of 5% carbon dioxide and 95% air. After the cultivation was completed, cells were collected, from which RNA was recovered by using an RNeasy mini kit (manufactured by Quiagen Company), followed by DNAase treatment using MessageClean Kit (manufactured by Genhunter Company) to obtain the total RNA. The amount of ChM-I mRNA in the total RNA was determined by the RT-PCR method. First, cDNA was synthesized from the RNA preparation by reverse transcription reaction using TaKaRa PCR Kit (AMV) ver. 2.1 and random 9-mers (manufactured by Takara Shuzo Co., Ltd.) according to the instruction for the kit. Next, ChM-I gene was amplified specifically by using HotStarTaq DNA polymerase (manufactured by Quiagen company). The following primers were used for the amplification of ChM-I gene: […]
The amplification reaction was carried out in a GeneAmp PCR System 2400 (manufactured by Perkin Elmer Inc.) after warming at 95° C. for 15 minutes, which was followed by 32 repeating reaction cycles of 95° C. for 20 seconds, 58° C. for 10 seconds and 72° C. for 30 seconds. The thus-obtained PCR product was separated by electrophoresis on 2% agarose gel containing ethidium bromide, and the fluorescence intensity of the DNA fragment, which appeared by ultraviolet irradiation at the location corresponding the size (212 bp) expected from the base sequence of mouse ChM-I, was determined. The activity of the test compound to enhance ChM-I expression is expressed as the density of ChM-I band as determined by bioimaging (Table 49). […]
Regarding `CCCS(=O)(=O)c1sc(C(N)=O)c2c1-c1c(cnn1C)CC2` [Example 70, 4,5-Dihydro-1-methyl-8-n-propylsulfonyl-1H-thieno[3,4-g]indazole-6-carboxamide], the ChM-I expression-enhancing activity was found to be 47.
For the molecule `CC(=O)c1sc(Oc2ccc3c(c2)OCO3)c2c1CCc1cnn(C)c1-2` [Example 251, 1-[4,5-Dihydro-8-(3,4-methylenedioxyphenoxy)-1-methyl-1H-thieno[3,4-g]indazol-6-yl]-1-ethanone], the ChM-I expression-enhancing activity worked out at 87.
With `CCNC(=O)c1sc(Oc2ccc3c(c2)OCO3)c2c1CCc1cnn(C)c1-2` [Example 255, N-ethyl-4,5-dihydro-8-(3,4-methylenedioxyphenoxy)-1-methyl-1H-thieno[3,4-g]indazole-6-carboxamide], the ChM-I expression-enhancing activity was found to be 106.

A further data set relates to interstitial cells prepared from the bone marrow of the femur of normal rats. Description: Action to promote osteogenesis: alkaline phosphatase activity in bone marrow interstitial cells. The format is cell-based, Sprague-Dawley rats. Also on record: dose or concentration left out as unconfirmed. As to conditions: rat bone marrow interstitial cells, compound added from day 2 for 5 days; mean ± S.E. (n = 4); all **p<0.01 vs. control. How it is done: Action to Promote Osteogenesis:
The action was determined in interstitial cells prepared from the bone marrow of the femur of normal rats by using alkaline phosphatase activity as the measure for osteogenesis. In other words, interstitial cells were prepared from the bone marrow of the femur of 7-week old male Sprague-Dawley rats according to the method of Maniatopoulos et al. [Cell Tissue Research, vol. 254, p. 317 (1988)], and cultivated in α-MEM (minimum essential medium) containing dexamethasone (10^−7 M) and β-glycerophosphoric acid (10^−2 M) to facilitate formation of the calcified osteoid tissue. After one week, the primary culture cells that reached the confluence were recovered by treating with a solution containing 0.25% trypsin and 0.2% EDTA and were subcultured in culture plates at a cell density of […] (day 0 of the cultivation). […] After the cells were washed with a phosphate buffer solution, 0.2% Nonidet P-40 was added to the cells, which were homogenized and centrifuged at 3000 rpm for 10 minutes, and the supernatant was subjected to the determination of alkaline phosphatase activity according to the method of Lowry et al. [Journal of Biological Chemistry, vol. 207, p. 19 (1954)]. Student's t-test was used for the statistical treatment.
As for `CCCS(=O)(=O)c1sc(C(N)=O)c2c1-c1c(cnn1C)CC2` [Example 70, 4,5-Dihydro-1-methyl-8-n-propylsulfonyl-1H-thieno[3,4-g]indazole-6-carboxamide], the “Alkaline phosphatase activity (A405)” value is 0.25 ± 0.02**.
Consider `CC(=O)c1sc(Oc2ccc3c(c2)OCO3)c2c1CCc1cnn(C)c1-2` [Example 251, 1-[4,5-Dihydro-8-(3,4-methylenedioxyphenoxy)-1-methyl-1H-thieno[3,4-g]indazol-6-yl]-1-ethanone], for which the “Alkaline phosphatase activity (A405)” value is reported as 1.33 ± 0.13**.
Regarding `CCNC(=O)c1sc(Oc2ccc3c(c2)OCO3)c2c1CCc1cnn(C)c1-2` [Example 255, N-ethyl-4,5-dihydro-8-(3,4-methylenedioxyphenoxy)-1-methyl-1H-thieno[3,4-g]indazole-6-carboxamide], the “Alkaline phosphatase activity (A405)” value is 1.82 ± 0.06**.

Tested on in another data set: not given
Test: not given
Conditions: not given
Turning to `CC(C)(C)OC(=O)c1sc(Nc2ccc(Cl)cc2)c2c1CCc1cnoc1-2` [Example 3, 8-(4-Chlorophenylamino)-4,5-dihydrothieno[3,4-g]-1,2-benzisoxazole-6-carboxylic Acid t-butyl Ester], the melting point was 197 to 198 °C.
Still for that read-out and setting: then `CC(C)(C)OC(=O)c1sc(Nc2ccccc2)c2c1CCc1cnoc1-2` [Example 4, 4,5-Dihydro-8-phenylaminothieno[3,4-g]-1,2-benzisoxazole-6-carboxylic Acid t-butyl Ester], with 148 to 149 °C; and `CN(C(=O)c1ccccc1)c1sc(C(=O)O)c2c1-c1oncc1CC2` [Example 11, 8-[(N-Benzoyl-N-methyl)amino]-4,5-dihydrothieno[3,4-g]-1,2-benzisoxazole-6-carboxylic Acid], with 232 to 233 °C (dec.).
Still for that read-out and setting: then `O=C(O)c1sc(Nc2ccc(Cl)cc2)c2c1CCc1cnoc1-2` [Example 12, 8-(4-Chlorophenylamino)-4,5-dihydrothieno[3,4-g]-1,2-benzisoxazole-6-carboxylic Acid], with 232 to 233 °C (dec.).
For the molecule `O=C(O)c1sc(Nc2ccccc2)c2c1CCc1cnoc1-2` [Example 13, 4,5-Dihydro-8-phenylaminothieno[3,4-g]-1,2-benzisoxazole-6-carboxylic Acid], the melting point was 211 to 212 °C (dec.).
In the case of `O=C(O)c1sc(N(C(=O)OCc2ccccc2)c2ccccc2)c2c1CCc1c[nH]nc1-2` [Example 14, 8-[(N-Benzyloxycarbonyl-N-phenyl)amino]-4,5-dihydro-1H-thieno[3,4-g]indazole-6-carboxylic Acid], the melting point was in the range of 278 to 279 °C.
`CN(C(=O)c1ccccc1)c1sc(C(N)=O)c2c1-c1oncc1CC2` [Example 18, 8-[(N-Benzoyl-N-methyl)amino]-4,5-dihydrothieno[3,4-g]-1,2-benzisoxazole-6-carboxamide] showed a melting point of 197 to 198 °C.
`NC(=O)c1sc(Nc2ccc(Cl)cc2)c2c1CCc1cnoc1-2` [Example 19, 8-(4-Chlorophenylamino)-4,5-dihydrothieno[3,4-g]-1,2-benzisoxazole-6-carboxamide] gave a melting point of 224 to 225 °C.
In turn, `NC(=O)c1sc(N(C(=O)OCc2ccccc2)c2ccccc2)c2c1CCc1c[nH]nc1-2` [Example 21, 8-[(N-Benzyloxycarbonyl-N-phenyl)amino]-4,5-dihydro-1H-thieno[3,4-g]indazole-6-carboxamide] displayed a melting point of 240 to 241 °C.
As for `Cn1cc2c(n1)-c1c(N(C(=O)OCc3ccccc3)c3ccccc3)sc(C(N)=O)c1CC2` [Example 22, 8-[(N-Benzyloxycarbonyl-N-phenyl)amino]-4,5-dihydro-2-methyl-2H-thieno[3,4-g]indazole-6-carboxamide], the melting point lay in the range of 220 to 221 °C.
Regarding `Cn1ncc2c1-c1c(Nc3ccccc3)sc(C(N)=O)c1CC2` [Example 28, 4,5-Dihydro-1-methyl-8-phenylamino-1H-thieno[3,4-g]indazole-6-carboxamide], the melting point was 140 to 141 °C.
Take `NC(=O)c1sc(Nc2ccccc2)c2c1CCc1cn[nH]c1-2` [Example 29, 4,5-Dihydro-8-phenylamino-1H-thieno[3,4-g]indazole-6-carboxamide]: the melting point lay within 233 to 234 °C.
Consider `CNC(=O)c1sc(Nc2ccccc2)c2c1CCc1cnoc1-2` [Example 33, N-Methyl-4,5-dihydro-8-(phenylamino)thieno[3,4-g]-1,2-benzisoxazole-6-carboxamide], for which the melting point fell in the range of 193 to 194 °C.
On the same count and under the same terms, the same measure for `CCOC(=O)c1sc(C)c2c1CCc1cnn(C)c1-2` [Example 73, 4,5-Dihydro-1,8-dimethyl-1H-thieno[3,4-g]indazole-6-carboxylic Acid Ethyl Ester]: 118 to 119 °C; for `CCCCc1sc(C(=O)OCC)c2c1-c1c(cnn1C)CC2` [Example 78, 8-n-Butyl-4,5-dihydro-1-methyl-1H-thieno[3,4-g]indazole-6-carboxylic Acid Ethyl Ester]: 80 to 81 °C; for `CCOC(=O)c1sc(C)c2c1CCc1cnn(CC(F)(F)F)c1-2` [Example 127, 4,5-Dihydro-8-methyl-1-(2,2,2-trifluoroethyl)-1H-thieno[3,4-g]indazole-6-carboxylic Acid Ethyl Ester]: 120 to 121 °C.
Same read-out and setting: then `CCOC(=O)c1sc(C)c2c1CCc1cnn(Cc3ccccc3)c1-2` [Example 128, 1-Benzyl-4,5-dihydro-8-methyl-1H-thieno[3,4-g]indazole-6-carboxylic Acid Ethyl Ester], with 131 to 132 °C; and `CCOC(=O)N1C2=C(CCc3csc(Oc4ccccc4)c32)CN1C` [Example 143, 4,5-dihydro-2-methyl-8-phenoxy-2H-thieno[3,4-g]indazole-1-carboxylic Acid Ethyl Ester], with 89 to 90 °C.
On to `CCOC(=O)c1sc(OC)c2c1CCc1cnn(C)c1-2` [Example 263], for which the melting point is 82 to 84 °C.
Molecule `COc1sc(C(=O)O)c2c1-c1c(cnn1C)CC2` [Example 271] displayed a melting point of 250 to 252 °C.
Molecule `COc1sc(C(N)=O)c2c1-c1c(cnn1C)CC2` [Example 279] displayed a melting point of 154 to 156 °C.
Molecule `Cn1cc2c(n1)-c1c(Oc3ccc(C=O)cc3)sc(C(N)=O)c1CC2` [Example 380, 8-(4-Formylphenoxy)-4,5-dihydro-2-methyl-2H-thieno[3,4-g]indazole-6-carboxamide] yielded a melting point of 210 to 211 °C.
Still for that read-out and setting: then `CC(C)OP(=O)(/C=C/c1ccc(Oc2sc(C(N)=O)c3c2-c2nn(C)cc2CC3)cc1)OC(C)C` [Example 380, 8-{4-((E)-2-diisopropoxyphosphorylvinyl)phenoxy}-4,5-dihydro-2-methyl-2H-thieno[3,4-g]indazole-6-carboxamide], with 216 to 217 °C; and `Cn1ncc2c1-c1c(csc1S(C)(=O)=O)CC2` [Example 490, 1-Methyl-8-methylsulfonyl-4,5-dihydro-1H-thieno[3,4-g]indazole], with 192 to 193 °C.
